In article PMC4383465 (European journal of pharmacology, 2014):
Values joined by “and” are separate entries in the source; they are usually repeats but may differ in a detail not shown here. Equal entries are not always repeated. Marks after values point to notes of the source that are not given here.

Experiments:
[1] = target: cannabinoid type-1 receptors endogenously expressed in Neuro2A cells (Mus musculus, UniProt P47746); experiment: Intracellular cAMP levels; assay type: cell-based; settings: for CB1R intrinsic activity: modulation of AC-activity compared to full agonist CP-55,940; for effect on intracellular cAMP compared to basal levels: 10 μM
cannabinoid type-1 receptors endogenously expressed in Neuro2A cells, sequence (P47746 whole entry): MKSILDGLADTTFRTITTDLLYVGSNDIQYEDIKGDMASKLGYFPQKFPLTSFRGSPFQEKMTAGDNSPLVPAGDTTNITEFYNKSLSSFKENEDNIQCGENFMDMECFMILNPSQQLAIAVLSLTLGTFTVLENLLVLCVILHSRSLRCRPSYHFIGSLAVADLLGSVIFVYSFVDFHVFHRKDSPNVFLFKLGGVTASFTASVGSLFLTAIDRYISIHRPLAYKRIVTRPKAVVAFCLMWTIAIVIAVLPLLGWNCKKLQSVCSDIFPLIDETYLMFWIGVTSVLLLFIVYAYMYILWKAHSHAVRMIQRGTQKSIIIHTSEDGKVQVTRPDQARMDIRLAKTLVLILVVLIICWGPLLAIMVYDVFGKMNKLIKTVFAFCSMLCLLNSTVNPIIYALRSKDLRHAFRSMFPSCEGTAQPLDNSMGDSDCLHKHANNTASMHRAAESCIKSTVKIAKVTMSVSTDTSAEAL

[2] = target: cannabinoid type-1 receptors (Mus musculus, UniProt P47746); settings: read-out: [3H]CP binding Ki, ref Brents et al., 2011; cited from earlier work
cannabinoid type-1 receptors, sequence (P47746 whole entry): as above

[3] = target: human cannabinoid type-2 receptors (Homo sapiens, UniProt P34972); assay type: binding; settings: for Selectivity CB1/CB2: CB1-Ki value divided CB2-Ki value
human cannabinoid type-2 receptors, sequence (P34972 whole entry): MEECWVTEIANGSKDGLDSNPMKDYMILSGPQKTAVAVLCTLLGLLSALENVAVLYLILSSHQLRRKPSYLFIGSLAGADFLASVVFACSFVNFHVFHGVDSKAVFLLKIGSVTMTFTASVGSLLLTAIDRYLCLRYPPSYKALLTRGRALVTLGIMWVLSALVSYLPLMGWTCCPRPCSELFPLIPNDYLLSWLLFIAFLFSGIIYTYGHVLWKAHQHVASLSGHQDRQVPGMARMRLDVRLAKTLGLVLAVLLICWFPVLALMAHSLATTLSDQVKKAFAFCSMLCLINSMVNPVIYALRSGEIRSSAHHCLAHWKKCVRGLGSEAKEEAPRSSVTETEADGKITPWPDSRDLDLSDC

[4] = target: human cannabinoid type-2 receptors stably expressed in CHO-hCB2 cells (Homo sapiens, UniProt P34972); experiment: Intracellular cAMP levels; assay type: cell-based; settings: for CB2R intrinsic activity: modulation of AC-activity compared to full agonist CP-55,940
human cannabinoid type-2 receptors stably expressed in CHO-hCB2 cells, sequence (P34972 whole entry): as above

[5] = up to a dose of 120 mg/kg; ref Geng et al., 2009; cited from earlier work
[6] = after oral delivery, plasma; ref Al-Ghananeem et al., 2007; cited from earlier work

SMILES	reduction in intracellular cAMP levels when administered alone ([1]; EC90 concentration (10 nM), Neuro2A cells)	Adenylyl Cyclase Inhibition Imax (% Inhibition) ([1]; concentration-effect curve, intact Neuro2A cells, 10 μM forskolin)	CB1R intrinsic activity [1]	decrease in intracellular cAMP levels ([1]; screen, 1 μM, Neuro2A cells)	Ki [2] [nM]	effect on intracellular cAMP compared to basal levels ([1]; screen, Neuro2A cells)	Selectivity CB1/CB2 [3]	intrinsic activity from full concentration-effect curves ([4]; CHO-hCB2 cells)	Adenylyl Cyclase Inhibition Imax (% Inhibition) ([4]; concentration-effect curve, intact CHO-hCB2 cells, negative = increase in cAMP)	CB2R intrinsic activity [4]	acute toxicity [5]	AUC [6] [ng·kg·min/mL/mg]	average Cmax [6]	selectivity for binding to cannabinoid type-2 relative to type-1 receptors [3] [fold]	increase in cAMP concentrations above basal levels ([4]; screen, 10 μM, CHO-hCB2 cells)
CCCCCCC(C)(C)c1ccc([C@@H]2C[C@H](O)CC[C@H]2CCCO)c(O)c1 [CP-55,940, reference compound]	45.7 +/− 3.7%	42.4±3.8 % Inhibition and 42.4 ± 3.8^a % Inhibition	Agonist	64.1 +/− 1.6%	0.26 ± 0.1	–	–	–	–	–	–	–	–	–	–
O=C1/C(=C/c2cn(Cc3ccc(Cl)cc3)c3ccccc23)N2CCC1CC2 [Compound 1]	–	–	Neutral Antagonist	–	–	did not significantly alter cAMP concentrations	1.56	full agonists	63.0 ± 5.2^a,b % Inhibition	Agonist	–	–	–	–	–
OC1/C(=C/c2cn(Cc3ccccc3)c3ccccc23)N2CCC1CC2 (centres unmarked) [Compound 8, (Z)-2-((1-benzyl-1H-indol-3-yl)methylene)quinuclidin-3-ol]	–	–	Neutral Antagonist	–	–	did not significantly alter cAMP concentrations	–	–	–	Agonist	did not produce any acute toxicity	3561 ± 670	1,710 ± 503 ng/ml	10	–
COC(=O)c1ccc(Cn2cc(/C=C3/C(=O)C4CCN3CC4)c3ccccc32)cc1 [Compound 4]	–	–	Inverse Agonist	–	–	significant elevations in intracellular cAMP above basal levels	1.62	–	–	Inverse Agonist	–	–	–	–	278 +/− 38.6%
